Test system: UT7/EPO Cell line
Test: Cell Proliferation Assay (UT7/EPO, ViaLight Plus)
Type: cell-based, human
Conditions: proliferative effect; compounds at 10 uM; UT7/EPO cells starved of EPO overnight; 72 hours at 37° C.; ViaLight Plus kit
Description: The primary testing for the examplfied compounds was performed in UT7/EPO Cell line. UT7/EPO is human leukemia cell line, obtained from Dr. Norio Komatsu (Blood, Vol 82 (2), pp 456-464, 1993). These cells express endogenous EPO receptor and are dependant upon EPO for growth and proliferation. Briefly, the cells were starved of EPO overnight and plated in 96 or 384 well plates. The compounds were added to the cells at 10 uM concentration. The plates were then incubated at 37° C. for 72 hours. The proliferative effect of the compounds was measured by a commercially available kit from Lonza (ViaLight Plus).

SMILES | Activity (%)
O=C(Nc1ccc2c(cnn2-c2ccc(NC(=O)c3cccs3)cc2)c1)c1ccc(N2CCCC(CO)C2)cc1 (racemic) [Compound 520, (±)-N-(4-(5-(4-(3-Hydroxymethyl)piperidin-1-yl)benzamido)-1H-indazol-1-yl)phenyl)thiophene-2-carboxamide] | 13
O=C(Nc1ccc(C(=O)c2ccc(NC(=O)c3ccc[nH]3)cc2)cc1)c1ccc(N2CCCC(CO)C2)cc1 (racemic) [Compound 700, (±)-N-(4-(4-(4-(3-(Hydroxymethyl)piperidin-1-yl)benzamido)benzoyl)phenyl)-1H-pyrrole-2-carboxamide] | 14
CN(C)c1ccc(C(=O)N/N=C/c2cccc(/C=N/NC(=O)c3ccc(N(C)C)cc3)c2)cc1 [Compound 103, (N′,N′″E,N′,N′″E)-N′,N′″-(1,3-phenylenebis(methanylylidene))bis(4-(dimethylamino)benzohydrazide)] | 16
COc1ccc(/C=N/NC(=O)c2ccc(N(C)C)cc2)cc1/C=N/NC(=O)c1ccc(N(C)C)cc1 [Compound 106, (N′,N′″E,N′,N′″E)-N′,N′″-((4-methoxy-1,3-phenylene)bis(methanylylidene))bis(4-(dimethylamino)benzohydrazide)] | 14
CN(C)c1ccc(C(=O)N/N=C/c2cc(/C=N/NC(=O)c3ccc(N(C)C)cc3)cc(OCc3ccccc3)c2)cc1 [Compound 107, (N′,N′″E,N′,N′″E)-N′,N′″-((5-(benzyloxy)-1,3-phenylene)bis(methanylylidene))bis(4-(dimethylamino)benzohydrazide)] | 17
C=CCOc1cc(/C=N/NC(=O)c2ccc(N(C)C)cc2)cc(/C=N/NC(=O)c2ccc(N(C)C)cc2)c1 [Compound 113, (N′,N′″E,N′,N′″E)-N′,N′″-((5-(allyloxy)-1,3-phenylene)bis(methanylylidene))bis(4-(dimethylamino)benzohydrazide)] | 17
O=C(N/N=C/c1cccc(/C=N/NC(=O)c2ccc(N(CC(F)(F)F)CC(F)(F)F)cc2)c1)c1ccc(N(CC(F)(F)F)CC(F)(F)F)cc1 [Compound 115, (N′,N′″E,N′,N′″E)-N′,N′″-(1,3-phenylenebis(methanylylidene))bis(4-(bis(2,2,2-trifluoroethyl)amino)benzohydrazide)] | 22
Cn1ccc2cc(C(=O)N/N=C/c3cccc(/C=N/NC(=O)c4ccc5c(ccn5C)c4)c3)ccc21 [Compound 125, (N′,N′″E,N′,N′″E)-N′,N′″-(1,3-phenylenebis(methanylylidene))bis(1-methyl-1H-indole-5-carbohydrazide)] | 15
CN(C)c1ccc(C(=O)N/N=C/c2cc(/C=N/NC(=O)c3ccc(N(C)C)cc3)cc(COCc3ccccc3)c2)cc1 [Compound 128, (N′,N′″E,N′,N′″E)-N′,N′″-((5-((benzyloxy)methyl)-1,3-phenylene)bis(methanylylidene))bis(4-(dimethylamino)benzohydrazide)] | 20
CN(C)c1ccc(C(=O)N/N=C/c2cc(/C=N/NC(=O)c3ccc(N(C)C)cc3)cc(NCCO)c2)cc1 [Compound 135, (N′,N′″E,N′,N′″E)-N′,N′″-((5-((2-hydroxyethyl)amino)-1,3-phenylene)bis(methanylylidene))bis(4-(dimethylamino)benzohydrazide)] | 16
COc1cccc(/C=N/NC(=O)c2ccc(C(=O)NCCC(=O)NCCO)cc2)c1 [Compound 141, (E)-N-(3-((2-hydroxyethyl)amino)-3-oxopropyl)-4-(2-(3-methoxybenzylidene)hydrazinecarbonyl)benzamide] | 19
COc1cc(/C=N/NC(=O)c2ccc(C(=O)NCCC(=O)NCCO)cc2)ccc1O [Compound 146, (E)-4-(2-(4-hydroxy-3-methoxybenzylidene)hydrazinecarbonyl)-N-(3-((2-hydroxyethyl)amino)-3-oxopropyl)benzamide] | 19

Reference: patent US9144557B2, “Hematopoietic growth factor mimetic small molecule compounds and their uses” (Ligand Pharmaceuticals Inc., priority 2009, dated 2015)
